Columns and labels:
Assay type in all cases: cell-based
HT29 cells = experiment: Mucin immunostaining in HT29 cells by microscopy; conditions: 1 uM, 72 hours, serum-free medium
Description: (§1) HT29 cells were seeded in 4 or 8 well slide chambers. 24 hours later, cells were treated for 72 hours in serum-free medium with either Compound Z (1 uM in DMSO) or DMSO at a final DMSO concentration of 0.1%. Treated cells were washed twice with PBS, fixed with 4% paraformaldehyde (10 min, RT) followed by methanol (2 min, −20° C.). Fixed cells were washed twice with PBS, incubated with PBS+0.5% TritonX100 for 10 min., washed twice with PBS and blocked for 2 hr in PBS containing 0.1% TritonX100, 2% BSA and 5% dry milk. Cells were stained with primary antibody against mucin-2, mucin-5AC, mucin-1, mucin-3, or mucin-6 by adding primary antibody in blocking buffer and incubating 1 hr, RT. Cells were washed 3× with PBS+0.1% TritonX100 and stained with an appropriate species-specific PE-, TRITC- or FITC-labeled secondary antibody for 30 min., RT. Cells were visualized through microscopy. γ-secretase inhibitor Compound Z induced mucin-2 and mucin-5AC (FIGS. 1A and 1B) but not mucin-1, mucin-3, or mucin-6 in HT29 cells.

HT29-L23 cells [1] = experiment: Mucin-2 induction in HT29-L23 cells; conditions: read-out: HT29-L23 IC50 (mucin-2 induction)
Description: as §1, with “Cells were washed 3× with PBS+0.1% TritonX100 and stained with an appropriate species-specific PE-, TRITC- or FITC-labeled secondary antibody for 30 min., RT. Cells were visualized through microscopy. γ-secretase inhibitor Compound Z induced mucin-2 and mucin-5AC (FIGS. 1A and 1B) but not mucin-1, mucin-3, or mucin-6 in HT29 cells.” left out
HT29 subclones were generated through limiting dilution. […] Mucin-2 positive cells were measured by FACS analysis (FIG. 2). […] Images were acquired on an ArrayScan™ system and analyzed for mucin-2 expression with the Target activation application (FIGS. 3A and 3B).
(§2) HeLa cells were transiently transfected with Notch-1 ΔE and the CBF1 luciferase reporter, and inhibition of Notch signaling by compounds known to inhibit γ-secretase was determined. Induction of mucin-2 in HT29-L23 cells was determined as in Example 1 for the same set of γ-secretase inhibitory compounds.

HT29-L23 cells [2] = experiment: Mucin-2 induction in HT29-L23 cells transfected with NICD, AICD or control plasmid (High Content Screening); conditions: 1 uM
Description: HT29-L23 cells were transiently transfected with control plasmid (pcDNA-DsRed) or Myc epitope tagged Notch intracellular domain (NICD) (activated Notch-1) or APP intracellular domain (AICD) (activated APP). Cells were treated with Compound Z (1 uM in DMSO) or vehicle, and protein expression was analyzed by High Content Screening as described in Example 1. After staining with Mucin-2 and Myc antibodies, the transfected subpopulation of cells (Myc positive) were used for final analysis. Cells without DsRed expression were designated as control. Statistical significance was determined by one-way ANOVA followed by Bonferroni's multiple comparison test performed within and between groups.

Notch = Notch cleavage assay; conditions: n=252
From the text: (§3) Any method for determining the ability of a compound to inhibit cleavage of γ-secretase substrates known in the art may be employed. For example, methods for assessing the ability of a compound to cleave APP are known. The ability of a compound to cleave APP may be assessed, for example, by measuring or detecting Aβ peptides (e.g., Aβ1-40, Aβ1-42; see, e.g., U.S. Published Application No. 2003/0215896).

APP = APP cleavage assay (Aβ peptides); conditions: n=166
From the text: as §3

HT29-L23 cells [3] = experiment: Real time PCR of Notch pathway genes in HT29-L23 cells; conditions: relative to DMSO, normalized to PPIA
Description: HT29-L23 cells were treated with Compound Z or DMSO as described in Example 1. mRNA were isolated at indicated time points (FIGS. 5A-E) and analyzed by real time PCR with indicated Taqman probes (Applied Biosystems, Foster City, Calif.). Results were normalized relative to the amount of cyclophilin A (PPIA) mRNA for the same sample and were plotted as fold changes relative to DMSO treated sample at time zero. Statistical significance was determined by one-way ANOVA followed by Bonferroni's multiple comparison test performed within groups.

[4] = system: Notch signaling (Notch-1 ΔE / CBF1 luciferase reporter); experiment: Inhibition of Notch signaling in HeLa cells transiently transfected with Notch-1 ΔE and CBF1 luciferase reporter; conditions: Homo sapiens
Description: as §2

- IC50 (HT29-L23 cells [1]): 11.9 nM
- EC50 (Notch): 2.1 nM
- EC50 (APP): 0.81 nM
- IC50 [4]: 4.59 nM
SMILES: C[C@H](NC(=O)[C@@H](O)c1cc(F)cc(F)c1)C(=O)N[C@@H]1C(=O)N(C)N=Cc2ccccc21 [Compound 1]
- mucin-1 induction (HT29 cells): not
- mucin-2 induction (HT29 cells): induced
- mucin-3 induction (HT29 cells): not
- mucin-5AC induction (HT29 cells): induced
- mucin-6 induction (HT29 cells): not
- number of cells producing mucin-2 (HT29-L23 cells [2]; AICD (activated APP) transfected group): increased
- number of cells producing mucin-2 (HT29-L23 cells [2]; Control group): increased
- Delta-1 mRNA (HT29-L23 cells [3]): induced
- HES-1 mRNA (HT29-L23 cells [3]): downregulated
- Jagged-2 mRNA (HT29-L23 cells [3]): induced
- Math-1 mRNA (HT29-L23 cells [3]): induced
- Mucin-2 mRNA (HT29-L23 cells [3]): induced
